Experimental data reported in patent US20220011296A1, “DETERMINING TREATMENT RESPONSE IN SINGLE CELLS” (Dana-Farber Cancer Institute, Inc., priority 2018, published 2022).
“Also recorded” adds a separate entry of the source.

Assays:
Assay type in all cases: cell-based, human
CNS Lymphoma cells = assay: Sample viability (Live/Dead), CNS lymphoma; details: 10 nM Ibrutinib, 2 days; vehicle 74%
Procedure: (§1) Primary Sample Handling. The six primary samples underwent the same protocol with regards to disassociation, recovery, and drugging; however, the exact timeline of each tissue varied slightly based on the amount of tissue and drug used (Table 1, below). After at least [culture time] in culture (with the exception of CNS lymphoma which was cultured for 24 hours), persistent red blood cells were removed with RBC lysis buffer (00-433-57, Thermo Fisher Scientific). The remaining cells were then dissociated with Accutase (A6964, Sigma-Aldrich) and further purified via demyelination (130-096-733, Miltenyi Biotec) with MS separation columns (130-042-201, Miltenyi Biotec), or debris removal (130-109-398, Miltenyi Biotec). The purified cells were plated in 6 or 24 well plates and allowed to recover in the well plate for [recovery time] before addition of the drug. After [drug duration] days, the samples were prepared for sSMR for drug response measurements by dissociation into a single-cell suspension using Accutase and gentle pipetting. Cells were resuspended at a concentration of 100,000 cells/mL in Neurocult NS-A (as prepared above) with the same concentration of drug or DMSO as their respective culture. Measurements for sample viability were determined (Table 2, below).

Normal brain cells = assay: Sample viability (Live/Dead), normal brain; details: 250 μM TMZ, 3 days; vehicle 35%
Procedure: as §1

[1] = tested on: glioblastoma multiforme (GBM) patient-derived cell lines (PDCLs); assay: Single cell mass / MAR assay in patient-derived cell lines; details: TMZ compared with DMSO, heterogeneous cohort of PDCLs, FIG. 7A
Procedure: A single cell protocol for monitoring the mass accumulation rate (MAR) in response to chemotherapy (FIGS. 6A-6F). After tumor resection, the tissue is dissociated into single cells (FIG. 6A). The single cells from the dissociated tumor is measured within a week of resection using the mass/MAR of the single cells in response to chemotherapeutic agents (FIG. 6C). In addition to acute sensitivity testing, dissociated tumor cells from patient samples can also be grown long-term into robust cell lines (e.g., patient-derived cell lines, PDCLs), where high throughput experiments can be performed and analyzed relative to a more complete genomic background of the tissue (FIG. 6D). Because this assay is high throughput, the MAR can be measured with more conditions relative to acute patient samples. These PDCLs can be implanted in vivo to allow MAR measurements to be taken ex vivo from treated animals (e.g., mice). Metabolic readouts (e.g., CellTiter-Glo, CTG) and spheroid area analysis (e.g., IncuCyte) were conducted in parallel to the novel single cell MAR assays described herein (FIG. 6E).
Single cell MAR experiments were conducted in both PDCLs and acute patient models (FIGS. 7A-7D). […] The single cell MAR assay detected changes within 24 hours after treatment with a chemotherapeutic (TMZ) compared with DMSO (FIG. 7A).

Glioblastoma cells = assay: Sample viability (Live/Dead), glioblastoma; details: 250 μM TMZ, 8 days; vehicle 73%
Procedure: as §1

Breast Met cells = assay: Sample viability (Live/Dead), breast metastasis; details: 3 days, vehicle 35%
Procedure: as §1

[2] = tested on: metastatic non-small-cell lung cancer cells (BT1443); assay: sSMR buoyant mass and MAR measurement, lung metastasis (BT1443); details: carboplatin 100 μM, 72 h
Procedure: Patient-derived cells from six different types of brain tissues were assessed for drug sensitivity in the sSMR: non-tumor brain tissue from epilepsy surgery, glioblastoma, recurrent glioblastoma, breast metastasis, lung metastasis, and primary CNS lymphoma. Resected samples obtained with patient consent to research (Brigham and Women's Hospital, DF/HCC IRB-approved consent protocol 10-417) were enzymatically and physically dissociated using the Brain Tumor Dissociation Kit P (130-095-942, Miltenyi Biotec) and gentleMACS Dissociator (130-093-235, Miltenyi Biotec). […]
Primary Sample Handling. […] Measurements for sample viability were determined (Table 2, below).
Measurements were obtained from […] types of primary patient sample types, including: non-tumor brain tissue resected for a non-tumor condition (FIGS. 5A-5B, Table 6) (n=1); primary glioblastoma (FIGS. 5C-5D, Table 7) and recurrent glioblastoma (FIGS. 5E-5F, Table 8) (n=2); metastatic breast adenocarcinoma (FIGS. 5G-5H, Table 9) (n=1); metastatic non-small-cell lung cancer (FIGS. 5I-5J, Table 10) (n=1); and primary central nervous system (CNS) lymphoma (FIGS. 5K-5L, Table 11) (n=1). […] Overall, mass and MAR were measured for 1092 cells with an average of 84 cells measured per condition over 13 conditions tested (FIGS. 1B-1C). […]

Lung Met cells = assay: Sample viability (Live/Dead), lung metastasis; details: 100 μM Carbo, 3 days; vehicle 80%
Procedure: as §1

[3] = tested on: Recurrent Glioblastoma cells; assay: Sample viability (Live/Dead), recurrent glioblastoma; details: 1 μM Abema, 3 days; vehicle 67%
Procedure: as §1

SMILES: C=CC(=O)N1CCC[C@@H](n2nc(-c3ccc(Oc4ccccc4)cc3)c3c(N)ncnc32)C1 [Ibrutinib]
- Drug 1 Viability (Live/Dead) (CNS Lymphoma cells): 65%

SMILES: Cn1nnc2c(C(N)=O)ncn2c1=O [TMZ, Temozolomide]
- Drug 1 Viability (Live/Dead) (Normal brain cells): 30%
- time after treatment at which single cell MAR changes were detected [1]: ≤ 24 h
- Drug 1 Viability (Live/Dead) (Glioblastoma cells): 69%

SMILES: CO[C@H]1C[C@@H]2CC[C@@H](C)[C@@](O)(O2)C(=O)C(=O)N2CCCC[C@H]2C(=O)O[C@H]([C@H](C)C[C@@H]2CC[C@@H](OCCO)[C@H](OC)C2)CC(=O)[C@H](C)/C=C(\C)[C@@H](O)[C@@H](OC)C(=O)[C@H](C)C[C@H](C)/C=C/C=C/C=C/1C [RAD001, everolimus]
- Drug 1 Viability (Live/Dead) (Breast Met cells; 1 nM RAD): 32%

SMILES: N.N.O=C([O-])C1(C(=O)[O-])CCC1.[Pt+2] [Carboplatin]
- Mass-normalized MAR vs vehicle (in words) [2]: significantly reduced; also recorded: Statistically significant reductions
- Drug 1 Viability (Live/Dead) (Lung Met cells): 74%

SMILES: CCN1CCN(Cc2ccc(Nc3ncc(F)c(-c4cc(F)c5nc(C)n(C(C)C)c5c4)n3)nc2)CC1 [Abemaciclib]
- Drug 1 Viability (Live/Dead) [3]: 59%
- Drug 2 Viability (Live/Dead) (Breast Met cells; 100 nM Abema): 35%
